Converted amounts (≈) assume the structure as drawn.
Columns and labels:
Type in all cases: cell-based
E. coli PRP1 Tet A = test: microbe, parasite or virus in culture; conditions: E. coli PRP1 Tet A
E. faecalis ATCC 29212 = test: MIC, agar dilution; conditions: E. faecalis ATCC 29212
[1] = test system: E. coli MC 4100 Tet sens.; test: MIC, agar dilution
[2] = test system: X. maltophilia NEMC 87210; test: MIC, agar dilution
S. aureus NEMC 8769 = test: MIC, agar dilution; conditions: S. aureus NEMC 8769
[3] = test system: S. hemolyticus AVHAH 88-3; test: MIC, agar dilution; conditions: S. hemolyticus AVHAH 88-3
E. coli BAJ9003 IMP MUT = test: microbe, parasite or virus in culture; conditions: E. coli BAJ9003 IMP MUT
E. coli UBMS 90-4 Tet M = test: microbe, parasite or virus in culture; conditions: E. coli UBMS 90-4 Tet M
E. coli #311 (MP) = test: MIC, agar dilution; conditions: E. coli #311 (MP)
[4] = test system: S. aureus UBMS 88-7 Tet K; test: microbe, parasite or virus in culture; conditions: S. aureus UBMS 88-7 Tet K
E. coli ATCC 25922 = test: MIC, agar dilution; conditions: E. coli ATCC 25922
[5] = test system: S. aureus UBMS 90-2 Tet M; test: microbe, parasite or virus in culture; conditions: S. aureus UBMS 90-2 Tet M
E. coli UBMS 89-1 Tet M = test: microbe, parasite or virus in culture; conditions: E. coli UBMS 89-1 Tet M
E. coli J2175 = test: MIC, agar dilution; conditions: E. coli J2175
Enterococcus 12201 = test: MIC, agar dilution; conditions: Enterococcus 12201
[6] = test system: E. coli UBMS 89-2 Tet sens.; test: MIC, agar dilution; conditions: E. coli UBMS 89-2 Tet sens.
S. aureus UBMS 88-4 = test: MIC, agar dilution; conditions: S. aureus UBMS 88-4
S. aureus ROSE (MP) = test: MIC, agar dilution; conditions: S. aureus ROSE (MP)
S. aureus IVES 2943 = test: MIC, agar dilution; conditions: S. aureus IVES 2943
E. coli J3272 Tet D = test: microbe, parasite or virus in culture; conditions: E. coli J3272 Tet D
[7] = test system: S. aureus UBMS 90-1 Tet M; test: microbe, parasite or virus in culture; conditions: S. aureus UBMS 90-1 Tet M
S. mariescens FPOR 8733 = test: MIC, agar dilution
[8] = test system: Ps. acruginosa ATCC 27853; test: MIC, agar dilution; conditions: Ps. acruginosa ATCC 27853
E. coli UBMS 90-5 = test: MIC, agar dilution
E. coli UBMS 88-1 Tet B = test: microbe, parasite or virus in culture; conditions: E. coli UBMS 88-1 Tet B; 18 hours at 35° C.
E. coli J3272 Tet C = test: microbe, parasite or virus in culture; conditions: E. coli J3272 Tet C
S. aureus UBMS 90-3 = test: MIC, agar dilution; conditions: S. aureus UBMS 90-3
S. aureus SMITH (MP) = test: MIC, agar dilution; conditions: S. aureus SMITH (MP)
[9] = test system: E. coli MC 4100 TNIOC Tet B; test: microbe, parasite or virus in culture; conditions: E. coli MC 4100 TNIOC Tet B
S. aureus ATCC 29213 = test: MIC, agar dilution; conditions: S. aureus ATCC 29213
S. aureus IVES 1 983 = test: MIC, agar dilution; conditions: S. aureus IVES 1 983
[10] = test system: S. aureus UBMS 88-5 Tet M; test: microbe, parasite or virus in culture; conditions: S. aureus UBMS 88-5 Tet M

Row | SMILES | MIC (E. coli PRP1 Tet A) [mg/L] | MIC (E. faecalis ATCC 29212) [mg/L] | MIC [1] [mg/L] | MIC [2] [mg/L] | MIC (S. aureus NEMC 8769) [mg/L] | MIC [3] [mg/L] | MIC (E. coli BAJ9003 IMP MUT) [mg/L] | MIC (E. coli UBMS 90-4 Tet M) [mg/L] | MIC (E. coli #311 (MP)) [mg/L] | MIC (E. coli ATCC 25922) [mg/L] | MIC [5] [mg/L] | MIC (E. coli UBMS 89-1 Tet M) [mg/L] | MIC (E. coli J2175) [mg/L] | MIC [6] [mg/L] | MIC (S. aureus UBMS 88-4) [mg/L] | MIC [7] [mg/L] | MIC (S. mariescens FPOR 8733) [mg/L] | MIC [8] [mg/L] | MIC (E. coli UBMS 90-5) [mg/L] | MIC (E. coli UBMS 88-1 Tet B) [mg/L] | also measured
1 | C#CCN(C)CC(=O)Nc1cc(N(C)C)c2c(c1O)C(=O)C1=C(O)[C@]3(O)C(=O)C(C(N)=O)=C(O)[C@@H](N(C)C)[C@@H]3C[C@@H]1C2 [V, [4S-(4alpha,12aalpha)]-4,7-Bis(dimethylamino)-1,4,4a,5,5a,6,11,12a-octahydro-3,10, 12,12a-tetrahydroxy-9-[[[methyl-2-propynylamino]acetyl]amino]-1,11-dioxo-2-naphthacenecarboxamide] | > 32 | 4 (≈ 6.88 µM) | 32 (≈ 55 µM) | 32 (≈ 55 µM) | 4 (≈ 6.88 µM) | 32 (≈ 55 µM) | 4 (≈ 6.88 µM) | > 32 | > 32 | > 32 | 8 (≈ 13.8 µM) | > 32 | > 32 | > 32 | 4 (≈ 6.88 µM) | 16 (≈ 27.5 µM) | > 32 | > 32 | > 32 | > 32 | MIC [4]: 32 mg/L (≈ 55 µM); MIC (Enterococcus 12201): 8 mg/L (≈ 13.8 µM); MIC (S. aureus ROSE (MP)): > 32 mg/L; MIC (S. aureus IVES 2943): > 32 mg/L; MIC (E. coli J3272 Tet D): > 32 mg/L; MIC (E. coli J3272 Tet C): > 32 mg/L; MIC (S. aureus UBMS 90-3): 4 mg/L (≈ 6.88 µM); MIC (S. aureus SMITH (MP)): 4 mg/L (≈ 6.88 µM); MIC [9]: > 32 mg/L; MIC (S. aureus ATCC 29213): 4 mg/L (≈ 6.88 µM); MIC (S. aureus IVES 1 983): > 32 mg/L; MIC [10]: 8 mg/L (≈ 13.8 µM)
2 | CN(C)c1cc(NC(=O)CNOCc2ccccc2)c(O)c2c1C[C@H]1C[C@H]3[C@H](N(C)C)C(O)=C(C(N)=O)C(=O)[C@@]3(O)C(O)=C1C2=O [X, [4S-(4-alpha,12aalpha)]-4,7-Bis(dimethylamino)-1,4,4a,5,5a,6,11,12a-octahydro-3,10, 12,12a-tetrahydroxy-1,11-dioxo-9-[[[(phenylmethoxy)amino]acetyl]amino]-2-naphthacenecarboxamide] | > 32 | 1 (≈ 1.57 µM) | 4 (≈ 6.29 µM) | 16 (≈ 25.2 µM) | 1 (≈ 1.57 µM) | 4 (≈ 6.29 µM) | 1 (≈ 1.57 µM) | > 32 | 16 (≈ 25.2 µM) | 16 (≈ 25.2 µM) | 2 (≈ 3.15 µM) | 16 (≈ 25.2 µM) | > 32 | > 32 | 1 (≈ 1.57 µM) | 2 (≈ 3.15 µM) | > 32 | > 32 | > 32 | > 32 | MIC [4]: 4 mg/L (≈ 6.29 µM); MIC (Enterococcus 12201): 4 mg/L (≈ 6.29 µM); MIC (S. aureus ROSE (MP)): 16 mg/L (≈ 25.2 µM); MIC (S. aureus IVES 2943): 8 mg/L (≈ 12.6 µM); MIC (E. coli J3272 Tet D): 16 mg/L (≈ 25.2 µM); MIC (E. coli J3272 Tet C): > 32 mg/L; MIC (S. aureus UBMS 90-3): 1 mg/L (≈ 1.57 µM); MIC (S. aureus SMITH (MP)): 0.5 mg/L (≈ 0.787 µM); MIC [9]: > 32 mg/L; MIC (S. aureus ATCC 29213): 1 mg/L (≈ 1.57 µM); MIC (S. aureus IVES 1 983): 8 mg/L (≈ 12.6 µM); MIC [10]: 2 mg/L (≈ 3.15 µM)
3 | CN(C)c1cc(NC(=O)CNCCN2CCCCC2)c(O)c2c1C[C@H]1C[C@H]3[C@H](N(C)C)C(O)=C(C(N)=O)C(=O)[C@@]3(O)C(O)=C1C2=O [U, [4S-(4alpha,12alpha)]-4,7-Bis(dimethylamino)-1,4,4a,5,5a,6,11,12a-octahydro3,10,12,12a-tetrahydroxy-1,11-dioxo-9-[[[[2-(1-piperidinyl)ethyl]amino]acetyl]amino]-2-naphthacenecarboxamide] | > 32 | 8 (≈ 12.5 µM) | 4 (≈ 6.24 µM) | 16 (≈ 25 µM) | 8 (≈ 12.5 µM) | 32 (≈ 49.9 µM) | 2 (≈ 3.12 µM) | 16 (≈ 25 µM) | 16 (≈ 25 µM) | 16 (≈ 25 µM) | 8 (≈ 12.5 µM) | 16 (≈ 25 µM) | 32 (≈ 49.9 µM) | 32 (≈ 49.9 µM) | 8 (≈ 12.5 µM) | 32 (≈ 49.9 µM) | > 32 | > 32 | 16 (≈ 25 µM) | > 32 | MIC [4]: 16 mg/L (≈ 25 µM); MIC (S. aureus ROSE (MP)): > 32 mg/L; MIC (S. aureus IVES 2943): > 32 mg/L; MIC (E. coli J3272 Tet C): 16 mg/L (≈ 25 µM); MIC (S. aureus UBMS 90-3): 8 mg/L (≈ 12.5 µM); MIC (S. aureus SMITH (MP)): 8 mg/L (≈ 12.5 µM); MIC [9]: 32 mg/L (≈ 49.9 µM); MIC (S. aureus ATCC 29213): 8 mg/L (≈ 12.5 µM); MIC (S. aureus IVES 1 983): > 32 mg/L; MIC [10]: 16 mg/L (≈ 25 µM)
4 | CN(C)c1cc(NC(=O)CNCCF)c(O)c2c1CC1CC3C(N(C)C)C(O)=C(C(N)=O)C(=O)C3(O)C(O)=C1C2=O (stereo not drawn) [T, [4S-(4alpha,12aalpha)]-4,7-Bis(dimethylamino)-9-[[[(2-fluoroethyl)amino]acetyl]amino]-1,4,4a,5,5a,6,11,12a-octahydro3,10,12,12a-tetrahydroxy-1,11-dioxo-2-naphthacenecarboxamide] | > 32 | 1 (≈ 1.74 µM) | 2 (≈ 3.47 µM) | 16 (≈ 27.8 µM) | 4 (≈ 6.95 µM) | 8 (≈ 13.9 µM) | 1 (≈ 1.74 µM) | 8 (≈ 13.9 µM) | 16 (≈ 27.8 µM) | 8 (≈ 13.9 µM) | 4 (≈ 6.95 µM) | 8 (≈ 13.9 µM) | 16 (≈ 27.8 µM) | 16 (≈ 27.8 µM) | 4 (≈ 6.95 µM) | 4 (≈ 6.95 µM) | > 32 | > 32 | 16 (≈ 27.8 µM) | 16 (≈ 27.8 µM) | MIC (Enterococcus 12201): 2 mg/L (≈ 3.47 µM); MIC (E. coli J3272 Tet D): 8 mg/L (≈ 13.9 µM); MIC (S. aureus UBMS 90-3): 2 mg/L (≈ 3.47 µM); MIC (S. aureus SMITH (MP)): 1 mg/L (≈ 1.74 µM); MIC [9]: 16 mg/L (≈ 27.8 µM); MIC (S. aureus ATCC 29213): 4 mg/L (≈ 6.95 µM); MIC [10]: 4 mg/L (≈ 6.95 µM)

Reference: US5328902A, “7-(substituted)-9-[(substituted glycyl)amido]-6-demethyl-6-deoxytetracyclines” (American Cyanamid Co., priority 1992, dated 1994)
